US8426179B2, “Synthetic peptide and peptide conjugates and related tissue coupling methods via transglutaminase enzyme” (priority 2007, dated 2013)

Tests used:
[1] = tested on: articular surface of cartilage; experiment: Coupling of hydrocortisone prodrugs to the articular surface of cartilage via tTG; type: biochemical, bovine; details: 1.0 mM prodrug with tTG, immunohistochemistry and quantification
Method: Modified tissue samples were immersed in tissue freezing media and frozen at −80° C. until use. Tissue slices (25 μm thick) were cut using a cryostat (Microm HM505N, Carl Zeiss) and the freezing media was removed with 3 washes of Buffer 1. Blocking was performed with 4% goat serum in Buffer 1 (blocking buffer) for 1 hour at room temperature. The tissue sections were then incubated with 10 μg/mL mouse anti-hydrocortisone antibody for 1.5 h in the blocking buffer at room temperature, rinsed 3 times with Buffer 1 for 5 minutes each, and then incubated with fluorescein conjugated goat anti-mouse antibody (1/200) in blocking buffer for 1 hour. Samples were rinsed again with Buffer 1 and then imaged using a Leica epifluorescent microscope (λex=495 nm, λem=520 nm for fluorescein) and a SPOT RT digital camera (Diagnostic Instruments, Sterling Heights, Mich.).

[2] = Hydrolysis of the hydrocortisone prodrugs in solution (buffers); type: physicochemical; details: Buffer 1, 4° C.
Method: This solution also contained 2 mM 6α-methyl prednisolone as an internal standard. The samples were then stored at −20° C. until analyzed with RP-HPLC and eluted with a linear gradient of 24-55% acetonitrile in water with 0.1% TFA. The amount of hydrocortisone hydrolyzed from the prodrug was determined by comparing its peak area to that of 6α-methyl prednisolone. […] Thirty microliter samples were collected at 10, 20, 30, and 60 minutes and analyzed as previously described.

## hydrocortisone-GFKG-PEG [TRIP-PC]
[1]
  bound hydrocortisone, TRIP-C compared with TRIP-PC: no detectable difference in bound hydrocortisone
[2]
  T50% of hydrolysis: 57.8 h
